Experiment [1] addresses T1, Mineralocorticoid receptor (Homo sapiens, UniProt P08235).
T1 sequence (P08235 whole entry): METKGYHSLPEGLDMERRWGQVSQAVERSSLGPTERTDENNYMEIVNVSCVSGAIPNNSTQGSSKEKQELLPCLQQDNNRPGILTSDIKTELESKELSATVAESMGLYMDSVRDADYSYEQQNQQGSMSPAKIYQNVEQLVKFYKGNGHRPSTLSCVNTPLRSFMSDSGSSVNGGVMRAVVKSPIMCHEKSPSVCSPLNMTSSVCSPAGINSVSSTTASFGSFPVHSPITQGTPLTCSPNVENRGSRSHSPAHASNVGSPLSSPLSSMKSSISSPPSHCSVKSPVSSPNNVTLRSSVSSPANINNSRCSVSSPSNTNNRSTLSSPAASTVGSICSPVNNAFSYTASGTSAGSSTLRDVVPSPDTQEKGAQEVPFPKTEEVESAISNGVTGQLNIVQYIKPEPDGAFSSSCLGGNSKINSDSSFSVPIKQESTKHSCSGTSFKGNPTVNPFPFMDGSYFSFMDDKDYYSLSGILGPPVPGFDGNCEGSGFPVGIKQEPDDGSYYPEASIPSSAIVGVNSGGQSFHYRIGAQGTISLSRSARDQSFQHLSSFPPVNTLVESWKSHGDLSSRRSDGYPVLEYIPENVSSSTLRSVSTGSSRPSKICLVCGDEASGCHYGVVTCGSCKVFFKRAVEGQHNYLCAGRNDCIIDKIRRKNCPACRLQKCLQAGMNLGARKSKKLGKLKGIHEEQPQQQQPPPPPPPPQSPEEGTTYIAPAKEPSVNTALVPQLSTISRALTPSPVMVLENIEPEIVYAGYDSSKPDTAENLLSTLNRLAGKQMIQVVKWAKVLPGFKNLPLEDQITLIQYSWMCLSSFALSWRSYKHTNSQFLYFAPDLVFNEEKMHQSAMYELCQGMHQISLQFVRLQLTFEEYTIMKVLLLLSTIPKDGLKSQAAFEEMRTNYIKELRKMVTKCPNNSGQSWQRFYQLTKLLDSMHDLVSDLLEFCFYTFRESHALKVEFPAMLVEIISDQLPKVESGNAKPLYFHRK
In words: Agonist activity at mineralocorticoid receptor in human A549 cells. The format is cell-based.

For a further experiment, the target named is T2, Glucocorticoid receptor (Homo sapiens, UniProt P04150).
T2 sequence (P04150 whole entry): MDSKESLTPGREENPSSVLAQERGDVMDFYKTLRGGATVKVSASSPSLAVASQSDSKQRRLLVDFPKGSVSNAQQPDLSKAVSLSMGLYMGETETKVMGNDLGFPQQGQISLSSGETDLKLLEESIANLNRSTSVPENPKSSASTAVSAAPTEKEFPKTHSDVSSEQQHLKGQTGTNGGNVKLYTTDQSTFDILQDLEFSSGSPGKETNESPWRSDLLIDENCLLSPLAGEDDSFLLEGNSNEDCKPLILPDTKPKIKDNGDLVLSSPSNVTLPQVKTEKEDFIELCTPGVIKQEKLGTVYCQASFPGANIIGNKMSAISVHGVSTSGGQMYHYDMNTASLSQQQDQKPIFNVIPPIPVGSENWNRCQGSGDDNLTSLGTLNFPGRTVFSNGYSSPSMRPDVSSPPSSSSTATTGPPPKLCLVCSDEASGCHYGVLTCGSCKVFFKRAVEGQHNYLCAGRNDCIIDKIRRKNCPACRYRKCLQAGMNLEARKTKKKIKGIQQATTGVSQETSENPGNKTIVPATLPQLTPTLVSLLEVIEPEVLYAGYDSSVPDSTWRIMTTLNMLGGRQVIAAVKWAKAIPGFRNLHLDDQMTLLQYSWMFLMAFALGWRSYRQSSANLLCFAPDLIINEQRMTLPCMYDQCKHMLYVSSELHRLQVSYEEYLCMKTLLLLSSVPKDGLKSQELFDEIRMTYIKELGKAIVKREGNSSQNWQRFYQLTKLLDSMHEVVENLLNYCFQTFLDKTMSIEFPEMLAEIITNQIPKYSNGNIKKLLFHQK
In words: Agonist activity at glucocorticoid receptor in human A549 cells assessed as AP-1 transrepression by luciferase reporter gene assay. The format is cell-based.

Another experiment addresses T3, Progesterone receptor (Homo sapiens, UniProt P06401).
T3 sequence (P06401 whole entry): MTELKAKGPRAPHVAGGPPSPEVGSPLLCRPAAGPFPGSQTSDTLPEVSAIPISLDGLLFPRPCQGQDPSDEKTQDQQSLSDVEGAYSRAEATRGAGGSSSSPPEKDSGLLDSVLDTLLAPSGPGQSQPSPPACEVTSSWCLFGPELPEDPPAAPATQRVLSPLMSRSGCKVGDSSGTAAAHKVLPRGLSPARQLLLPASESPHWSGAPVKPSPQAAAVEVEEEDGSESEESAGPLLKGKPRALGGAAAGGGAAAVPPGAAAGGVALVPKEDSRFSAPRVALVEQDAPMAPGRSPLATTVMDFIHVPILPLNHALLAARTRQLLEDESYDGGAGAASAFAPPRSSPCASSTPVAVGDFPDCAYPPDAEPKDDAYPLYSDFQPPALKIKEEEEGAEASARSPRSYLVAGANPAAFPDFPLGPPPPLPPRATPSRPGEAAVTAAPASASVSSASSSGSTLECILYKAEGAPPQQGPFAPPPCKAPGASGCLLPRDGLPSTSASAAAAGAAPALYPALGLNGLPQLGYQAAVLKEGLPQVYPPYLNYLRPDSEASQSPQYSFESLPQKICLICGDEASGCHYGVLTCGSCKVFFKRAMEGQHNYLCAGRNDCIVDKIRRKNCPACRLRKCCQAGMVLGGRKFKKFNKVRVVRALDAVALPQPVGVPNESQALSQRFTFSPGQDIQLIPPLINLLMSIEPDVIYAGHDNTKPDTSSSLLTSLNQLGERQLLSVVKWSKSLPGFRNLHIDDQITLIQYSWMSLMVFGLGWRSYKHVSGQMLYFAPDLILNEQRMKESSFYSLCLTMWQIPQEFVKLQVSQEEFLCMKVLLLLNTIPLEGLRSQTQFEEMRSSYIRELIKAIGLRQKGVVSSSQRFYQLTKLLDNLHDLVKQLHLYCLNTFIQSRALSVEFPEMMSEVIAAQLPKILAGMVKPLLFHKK
In words: Binding affinity to progesterone receptor (unknown origin) by fluorescence polarization assay. (In fluorescence polarisation assays a small probe gives low polarisation when free and higher when bound to something large.)

Drawing on ChEMBL document CHEMBL3351663, “Discovery of acylurea isosteres of 2-acylaminothiadiazole in the azaxanthene series of glucocorticoid receptor agonists” (Bioorg Med Chem Lett, 2014), this text covers EC50 and Ki for two molecules.

A word on the EC50: it is the concentration that produces a half-maximal response. As usually defined, the Ki is a dissociation constant, usually derived from enzyme kinetics or from competition with a known ligand. A low value points to tighter binding. Consider `CC(C)(C(=O)NC(N)=O)[C@@H]1c2ccc(-c3ccc(C(=O)N4CCOCC4)cc3)nc2Oc2c(F)cccc21`, for which the results for the EC50 (in experiment [1]; at Glucocorticoid receptor) were over 5 µM and 2.1 nM, respectively. Moreover, the affinity at Progesterone receptor corresponds to a Ki of 52.8 nM.
On the same counts, the results for `CC(C)(C(=O)Nc1nncs1)[C@@H]1c2ccc(-c3ccc(C(=O)N4CCOCC4)cc3)nc2Oc2c(F)cccc21` are over 5 µM, 2.1 nM and 44.9 nM.
